Read-outs that look alike come from different tables or passages of the source.
System: L5/L6 spinal nerve ligation (SNL) rats, mechanical hyperalgesia
Experiment: L5/L6 Spinal Nerve Ligation (SNL) Chung pain model, assessment of mechanical hyperalgesia (digital Randall-Selitto)
Assay type: in vivo, male Sprague-Dawley rats
Conditions: p.o.; for Response Threshold (g) 1 hr / Response Threshold (g) 2 hr / Response Threshold (g) 4 hr / effect on mechanical hyperalgesia compared to vehicle treated animals / inhibition in vivo at 30 mg/kg: 30 mg/kg; for effect on mechanical hyperalgesia compared to vehicle treated animals: time points 1, 2, 4 hours after administration
Source text: The Spinal Nerve Ligation is an animal model representing peripheral nerve injury generating a neuropathic pain syndrome. In this model experimental animals develop the clinical symptoms of tactile allodynia and hyperalgesia. L5/L6 Spinal nerve ligation (SNL) injury was induced using the procedure of Kim and Chung (Kim et al., Pain 50:355-363 (1992)) in male Sprague-Dawley rats (Harlan; Indianapolis, Ind.) weighing 200 to 250 grams. An exemplary protocol is provided below
The animals were anesthetized with isoflurane, the left L6 transverse process was removed, and the L5 and L6 spinal nerves were tightly ligated with 6-0 silk suture. The wound was closed with internal sutures and external tissue adhesive.
Baseline and post-treatment values for mechanical hyperalgesia were evaluated using a digital Randall-Selitto device (dRS; IITC Life Sciences, Woodland Hills, Calif.). Animals were allowed to acclimate to the testing room for a minimum of 30 minutes before testing. Animals were placed in a restraint sling that suspends the animal, leaving the hind limbs available for testing. Paw compression threshold was measured once at each time point for the ipsilateral and contralateral paws. The stimulus was applied to the plantar surface of the hind paw by a dome-shaped tip placed between the 3rd and 4th metatarsus, and pressure was applied gradually over approximately 10 seconds. Measurements are taken from the first observed nocifensive behavior of vocalization, struggle or withdrawal. A cut-off value of 300 g was used to prevent injury to the animal. The mean and standard error of the mean (SEM) were determined for each paw for each treatment group. Fourteen days after surgery, mechanical hyperalgesia was assessed and rats were assigned to treatment groups based on pre-treatment baseline values. Prior to initiating drug delivery, baseline behavioural testing data can be obtained. At selected times after infusion of the Test or Control Article behavioural data can then be collected again.

[1] = Rattus norvegicus, po, 1 hr after administration, read-out: % Reversal 1 hr
[2] = Rattus norvegicus, po, 2 hr after administration, read-out: % Reversal 2 hr
[3] = Rattus norvegicus, po, 4 hr after administration, read-out: % Reversal 4 hr

Structure (SMILES)	Response Threshold (g) 1 hr (1 hr after administration)	Response Threshold (g) 2 hr (2 hr after administration)	Response Threshold (g) 4 hr (4 hr after administration)	effect on mechanical hyperalgesia compared to vehicle treated animals	inhibition in vivo at 30 mg/kg [1]	inhibition in vivo at 30 mg/kg [2]	inhibition in vivo at 30 mg/kg [3]	inhibition in vivo at 100 mg/kg (Rattus norvegicus, po, 2 h, 100 mg/kg, 2 hr after administration, read-out: % Reversal 2 hr)
CC(C)(N)Cc1nc2cc(C(F)(F)F)cc(C(F)(F)F)c2[nH]1 [Compound (34), 1-(5,7-bis(trifluoromethyl)-1H-benzo[d]imidazol-2-yl)-2-methylpropan-2-amine]	104.5 g	144.8 g	132.4 g	significantly decreased mechanical hyperalgesia 2 and 4 hours	15.3%	54.2%	42.3%	
CNCc1nc2cc(C(F)(F)F)cc(C(F)(F)F)c2[nH]1 [Compound (41), 1-(5,7-bis(trifluoromethyl)-1H-benzo[d]imidazol-2-yl)-N-methylmethanamine]	99.6 g	108.3 g	109.0 g	significantly decreased mechanical hyperalgesia at 2 and 4 hours	13.8%	20.7%	21.3%	
NCC(=O)NCc1nc2cc(C(F)(F)F)cc(C(F)(F)F)c2[nH]1 [Compound (24), 2-amino-N-((5,7-bis(trifluoromethyl)-1H-benzo[d]imidazol-2-yl)methyl)acetamide]	84.0 g	118.4 g	116.6 g	no significant effect on mechanical hyperalgesia at any time point tested	0.8%	27.9%	26.5%	
CC(C)(N)C(=O)NCc1nc2cc(C(F)(F)F)cc(C(F)(F)F)c2[nH]1 [Compound (36), 2-amino-N-((5,7-bis(trifluoromethyl)-1H-benzo[d]imidazol-2-yl)methyl)-2-methylpropanamide]	87.8 g	107.0 g	112.3 g	no significant effect on mechanical hyperalgesia at any time point tested	-0.5%	18.6%	23.8%	
FC(F)(F)c1cc(C(F)(F)F)c2nc(CC3CNC3)[nH]c2c1 [Compound (1), 2-(azetidin-3-ylmethyl)-4,6-bis(trifluoromethyl)-1H-benzo[d]imidazole]	93.8 g	120.6 g	113.3 g	significantly decreased mechanical hyperalgesia at 2 and 4 hours	9.2%	30.2%	24.4%	
CN(Cc1nc2cc(C(F)(F)F)cc(C(F)(F)F)c2[nH]1)S(N)(=O)=O [Compound (56), N-{[4,6-bis(trifluoromethyl)-1H-benzimidazol-2-yl]methyl}-N-methylsulfuric diamide]	110.8 g	131.4 g	140.4 g	significantly decreased mechanical hyperalgesia 2 and 4 hours	19.8%	40.4%	49.4%	
NCCc1nc2cc(C(F)(F)F)cc(C(F)(F)F)c2[nH]1 [Compound (33), 2-(5,7-bis(trifluoromethyl)-1H-benzo[d]imidazol-2-yl)ethanamine]	113.6 g	136.9 g	150.8 g	significantly decreased mechanical hyperalgesia at 1, 2 and 4 hours	22.4%	44.7%	58.1%	
O=C1CNCCN1Cc1nc2cc(C(F)(F)F)cc(C(F)(F)F)c2[nH]1 [Compound (110), 1-((5,7-bis(trifluoromethyl)-1H-benzo[d]imidazol-2-yl)methyl)piperazin-2-one]	100.6 g	148.5 g	126.1 g	significantly decrease mechanical hyperalgesia at two and four hours	14.6%	51.2%	34.1%	
CC(C)C[C@H](CN)Cc1nc2c(C(F)(F)F)cc(C(F)(F)F)cc2[nH]1 [Compound (31), (S)-2-((4,6-bis(trifluoromethyl)-1H-benzo[d]imidazol-2-yl)methyl)-4-methylpentan-1-amine]	107.9 g	139.0 g	109.9 g	significantly decreased mechanical hyperalgesia 2 and 4 hours	17.2%	48%	19.2%	
NCC1(CC(=O)O)CCCCC1 [Gabapentin]								55.3%

From patent US9688615B2, “Benzimidazole inhibitors of the sodium channel” (Mark G. DeGiacomo, priority 2011, dated 2017)
